≈ marks a conversion by molar mass, not a printed value.
What was measured:
Staphylococcus aureus = experiment: Antibacterial activity against Staphylococcus aureus ATCC 700787 after 17 hrs; format: functional; details: ATCC 700787, 17 h
[1] = Cytotoxicity against human MIAPaCa2 cells assessed as after 48 hrs by MTT assay; format: functional, cell-based; details: MIA PaCa-2, 48 h

Row | Structure (SMILES) | MIC (Staphylococcus aureus) [µM] | IC50 [1] [µM]
1 | COC(=O)c1c(Sc2c(O)cc(OC)c(C(=O)c3c(O)cc(C)cc3O)c2C(=O)OC)c(O)cc(OC)c1C(=O)c1c(O)cc(C)cc1O | 4.1 (≈ 2.85 µg/mL) | 50.8
2 | COC(=O)c1c(Sc2c(O)cc3oc4cc(C)cc(O)c4c(=O)c3c2C(=O)OC)c(O)cc(OC)c1C(=O)c1c(O)cc(C)cc1O | 4.9 (≈ 3.25 µg/mL) | 30.3
3 | COC(=O)c1c(Sc2c(O)cc3oc4cc(C)cc(O)c4c(=O)c3c2C(=O)OC)c(O)cc2oc3cc(C)cc(O)c3c(=O)c12 | 3.2 (≈ 2.02 µg/mL) | 29.3
4 | O=C(N[C@H](CO)[C@H](O)c1ccc([N+](=O)[O-])cc1)C(Cl)Cl [CHLORAMPHENICOL] | 5 (≈ 1.62 µg/mL) | 

From ChEMBL document CHEMBL3352203, “Bioactive sulfur-containing sulochrin dimers and other metabolites from an Alternaria sp. isolate from a Hawaiian soil sample” (J Nat Prod, 2014)
